The values that follow come from patent US20220090023A1, “METHODS FOR REGULATING POTENCY OF PLURIPOTENT STEM CELLS AND APPLICATIONS THEREOF” (ACADEMIA SINICA, priority 2018, published 2022).

Where two headings read alike, the source gives them in different places.

Holding throughout (format): cell-based, human
One assay deals with hBMSC. Nature of the assay: IC50 analyses of three inhibitors of cell growth, hBMSC. The settings on record: for IC50: hBMSC, inhibitor treatments for 3 days; for hPSCs more sensitive than human bone marrow mesenchymal stem cells (hBMMSCs): hBMMSCs vs hPSCs. How it is done: (§1) Human BMMSCs (Lonza) were cultured in MSC NutriStem XF Medium (Defined, xeno-free, serum-free medium) and grown on Corning CellBIND Surface plates with inhibitor treatments for 3 days. Human neural stem cells (NSCs) were differentiated from H9 hESCs with Gibco PSC Neural Induction Medium (serum-free medium) for 7 days. And the NSCs were replated on matrigel-coated plate and supplied with each inhibitors for 3 days.
(§2) To check the functional roles of cholesterol on pluripotency, cholesterol inhibitor simvastatin, AY9944, Methyl-β-cyclodextrin (MBCD) were used to inhibit cholesterol biosynthesis (FIG. 4A). […] HMGCR is the rate-limiting enzyme of cholesterol biosynthesis. The side effects of statin are few and no cytotoxic side effects in human has been reported. AY9944 inhibits Δ7-dehydrocholesterol reductase (DHCR7), and decrease levels of cholesterol (Wassila Gaoua, 2000). Methyl-β-cyclodextrin (MBCD) directly deprived cellular cholesterol (Mahammad and Parmryd, 2015) (FIG. 4A). […] Next, we would like to know whether PSCs are more rely on cholesterol pathway. Thus, we compared the sensitivities of three cholesterol inhibitors in PSCs and three somatic fibroblast cells. Primary human foreskin fibroblasts (CRL-2097), a human foreskin fibroblast cell line (BJ-5Ta), and a fetal lung fibroblast cell line (IMR-90) were used for comparison.

Another assay relates to H9. Kind of assay: IC50 analyses of three inhibitors of cell growth, H9. How it is done: (§3) For feeder-free experiments, cells were cultured in a chemically defined medium (Essential 8 medium).
(§4) hESCs were cultured with Essential 8 medium (Thermo Fisher, A1517001) which containing 15% Alamar blue at 37° C. for 5 hours. The activities were calculated by measuring absorbance at 570 nm and 600 nm. To count the cell numbers with trypan blue assay, cells were treated with trypsin and the suspended cells were mixed 0.2% trypan blue (1:1) and counted with a hemocytometer.
as §2, with “Primary human foreskin fibroblasts (CRL-2097), a human foreskin fibroblast cell line (BJ-5Ta), and a fetal lung fibroblast cell line (IMR-90) were used for comparison.” left out

A further assay relates to IMR-90. Kind of assay: IC50 analyses of three inhibitors of cell growth, IMR-90.
Source text: as §2

In the next assay the test system is hNSC. Nature of the assay: IC50 analyses of three inhibitors of cell growth, hNSC. The settings on record: for IC50: hNSC, inhibitors for 3 days; for hPSCs more sensitive than human neural stem cells (hNSCs): hNSCs vs hPSCs. How it is done:
as §1, §2

In a further assay the test system is BJ-5Ta. Kind of assay: IC50 analyses of three inhibitors of cell growth, BJ-5Ta.
Source text: as §2

For a further assay, the system named is HUES6. Kind of assay: IC50 analyses of three inhibitors of cell growth, HUES6. How it is done: as §3, §4
as §2, with “Primary human foreskin fibroblasts (CRL-2097), a human foreskin fibroblast cell line (BJ-5Ta), and a fetal lung fibroblast cell line (IMR-90) were used for comparison.” left out

In a further assay the test system is CRL-2097. Kind of assay: IC50 analyses of three inhibitors of cell growth, CRL-2097. The settings on record: for IC50 higher in primary fibroblasts than HUES6: primary fibroblasts vs HUES6.
Source text: as §2

The test system of assay [1] is PODXL downregulated HUES6 hESCs. Nature of the assay: Cholesterol rescue in PODXL knockdown hESCs (Alamar blue, ALP activity). The settings on record: cholesterol addition for 4 days. How it is done: (§5) FIGS. 5A-5B. Cholesterol addition rescue hESC renewal in PODXL knockdown cells. […] Quantification of Annexin V/PI-positive cells was executed in triplicates (bottom left panel). P-values were calculated by performing one-way ANOVA against the shRFP hESCs (*p<0.05, **p<0.01, ***p<0.001). (Bottom right panel) Cholesterol restores the c-MYC/TERT expressions decrease by the expression of shPODXL. Western Blots were executed in PODXL knockdown HUES6 hESCs with the addition of cholesterol for 4 days.
as §4
Alkaline phosphatase (ALP) activities were calculated by adding the substrate of ALP, p-nitrophenyl phosphate (pNPP) (N7653, sigma), in the culture medium. The plate were incubated at 37° C. less than 5 minutes, then the absorbance was measured at 405 nm. For Alkaline phosphatase (ALP) staining, hPSCs were first washed with PBS and used 4% formaldehyde as a fixative. After fixing for 3 minutes, the cells were washed with 1×PBS and were stained by ALP staining reagent (Sigma). Then the cells were further washed by PBS. […]

For assay [2], the system named is c-MYC, TERT, HMGCR, PODXL, TRA-1-60. Nature of the assay: Western blot in PODXL knockdown hESCs with cholesterol. The settings on record: PODXL downregulated cells, cholesterol for 4 days. The protocol: as §5
Whole-cell protein extracts were purified from hPSCs or using RIPA lysis buffer (1% NP40, 50 mM Tris, pH 8.0, 150 mM NaCl, 2 mM EDTA) with the presence of protease inhibitor cocktail (Roche, 04693132001). Protein concentration was quantified by Bio-Rad Bradford Protein Assay. Equal amounts of protein were subjected to a 10% SDS-PAGE gel and blotted onto 0.22 um PVDF membrane (Millipore, ISEQ00010). Blots were blocked in 5% BSA/TBST at room temperature for 1 hr. The blots were incubated with the primary antibodies in 5% BSA/TBST at 4° C. overnight. […]
In general terms: A western blot detects proteins with antibodies after separation by electrophoresis.

Another assay has as its system CRL2097. Nature of the assay: iPSC reprogramming efficiency with cholesterol (alkaline phosphatase assay). The settings on record: with OSKM 4 factors. The protocol: FIG. 6. The addition of cholesterol promote the iPSCs reprogramming efficiency. CRL2097 (passage 9) were seeded and infected with lentivirual vector (OSKM) with final concentration of cholesterol (0, 0.5×, 1×, 2×, 5×, 8×) which was diluted from 500× concentrated SyntheChol® NSO Supplement (S5442, Sigma). Alkaline phosphatase assay was performed to assay the reprogramming efficiency.
CRL2097 (passage 9) were seeded and infected with lentivirual vector (OSKM) with final concentration of cholesterol (0, 0.5×, 1×, 2×, 5×, 8×) which was diluted from 500× concentrated SyntheChol® NSO Supplement (S5442, Sigma). After 4 days viral transduction, cell were replated on matrigel-coated 6-well plates as cell number 27, 000 per well. 2 days later for cell attachment, cholesterol were supplied continually during reprogramming procedure. To better evaluate cholesterol effect to iPSC generation, serum-free defined E8 medium (containing 250 μM sodium butyrate, 50 μg/ml Vitamin C) was used for iPSC generation.
In addition, cholesterol can boost the reprogramming efficiency (total AP positive, 7.62-fold) with OSKM 4 factors.

A further assay relates to PODXL knockdown hESCs. Kind of assay: Annexin V/PI apoptosis in PODXL knockdown hESCs with cholesterol. The settings on record: PODXL knockdown for six days. How it is done: as §5
hESCs were dissociated by accutase. The cells were stained according to manufactures' instructions (eBioscience, 88-8005-72). In brief, cells (5×10^5) were suspended at in 100 μl 1× binding buffer, and then stained with 2.5 μl of Annexin V-FITC. After reaction for 20 min at room temperature, the cells were incubated with 2.5 μl of PI solution for 10 min. Then the cells were diluted with PBS and analyzed with a flow cytometer.
To examine if cholesterol is the major downstream of PODXL, rescue experiment with cholesterol was performed.

Assay [3] relates to PODXL overexpressing hESCs. Kind of assay: Inhibitor treatment of PODXL overexpressing hESCs (Alamar blue, ALP activity). The settings on record: PODXL overexpressed one day, then inhibitor treatment for 3 days. How it is done: as §4
The subject of a further assay is HUES6 hESCs. Nature of the assay: Alkaline phosphatase activity after cholesterol inhibitor treatment. The settings on record: treatment for 3 days.
Source text: as §2

Consider `CCC(C)(C)C(=O)O[C@H]1C[C@@H](C)C=C2C=C[C@H](C)[C@H](CC[C@@H]3C[C@@H](O)CC(=O)O3)[C@H]21` [Simvastatin, (1S,3R,7S,8S,8aR)-1,2,3,7,8,8a-Hexahydro-3,7-dimethyl-8-[2-[(2R,4R)-tetrahydro-4-hydroxy-6-oxo-2H-pyran-2-yl]ethyl]-1-naphthalenyly-2,2-dimethyl butanoate], for which the IC50 (in general, the concentration that inhibits the measured activity by half) with hBMSC (Homo sapiens, 72 h) came out at 8.97 µM; with H9 (Homo sapiens) it was 0.02 µM; in the assay on IMR-90 (Homo sapiens, IMR-90, IMR-90, no serum), 5.46 µM; in the assay with IMR-90 (Homo sapiens, IMR-90, IMR-90, serum), 4.13 µM; in the assay on hNSC (Homo sapiens, 72 h), 31.2 µM; with BJ-5Ta (Homo sapiens, no serum) it was 1.96 µM. The IC50 in the assay with BJ-5Ta (Homo sapiens, serum) amounted to 4.36 µM; in the assay on HUES6 (Homo sapiens), 0.16 µM; with CRL-2097 (Homo sapiens, CRL-2097, no serum), 4.35 µM; in the assay on CRL-2097 (Homo sapiens, CRL-2097, serum), 5.44 µM. Besides, in the assay on hBMSC, the “hPSCs more sensitive than human bone marrow mesenchymal stem cells (hBMMSCs)” value turned out to be 163 fold. For the same compound, the “hPSCs more sensitive than human neural stem cells (hNSCs)” value in the assay on hNSC came out at 568 fold. Besides, in the assay with CRL-2097, the “IC50 higher in primary fibroblasts than HUES6” value turned out to be 52 fold.
As to `CC(C)CCC[C@@H](C)[C@H]1CC[C@H]2[C@@H]3CC=C4C[C@@H](O)CC[C@]4(C)[C@H]3CC[C@]12C` [cholesterol], in assay [1] (Alamar blue), the “relative cell number loss from PODXL knockdown” value was “prevent”. The “reduction in ALP activity from PODXL knockdown” value in assay [1] is given as “prevent”. Moreover, the “expression levels of c-MYC, TERT, HMGCR, PODXL, TRA-1-60” value in assay [2] is “rescued”. Further, in the assay with CRL2097, the “reprogramming efficiency (total AP positive)” value is recorded as 7.62 fold. Further, the “apoptosis of the hPSCs” value in the assay on PODXL knockdown hESCs is listed as “substantially restored”.
Turning to Methyl-β-cyclodextrin [MBCD], the “hPSCs more sensitive than human bone marrow mesenchymal stem cells (hBMMSCs)” value with hBMSC stood at 2.65 fold. The 50% inhibitory concentration (IC50) with hBMSC stood at 3290 µM; in the assay with H9 it was 1130 µM; in the assay on IMR-90 (IMR-90, no serum), 2640 µM; in the assay on IMR-90 (IMR-90, serum), 2810 µM; with hNSC it was 3020 µM; in the assay on BJ-5Ta (no serum), 2340 µM. Besides, the IC50 worked out at 3770 µM with BJ-5Ta (serum); 1350 µM in the assay on HUES6; 2600 µM with CRL-2097 (CRL-2097, no serum); 3860 µM in the assay on CRL-2097 (CRL-2097, serum). The “upregulation in self-renewal (cell growth and ALP activity) by PODXL overexpression” value in assay [3] is reported as “inhibited”. Moreover, the “hPSCs more sensitive than human neural stem cells (hNSCs)” value in the assay on hNSC came to 2.44 fold. The “IC50 higher in primary fibroblasts than HUES6” value with CRL-2097 is listed as 2 fold. Moreover, the “Alkaline phosphatase activities (stem cell marker expression)” value in the assay with HUES6 hESCs was “hampered”.
